PubChem BioAssay (NCI)
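In this assay, cells in 96-well plates receive the compound at five concentrations for 48 hours. Endpoints are linearly interpolated between the surrounding concentrations. GI50 = concentration required for 50% inhibition of growth. TGI: concentration producing complete growth inhibition.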

Legend:
Test in all cases: NCI-60 cell line screen, 48 h
SW-620 colon = tested on: SW-620 colon
MALME-3M melanoma = tested on: MALME-3M melanoma
UO-31 renal = tested on: UO-31 renal
SK-MEL-2 melanoma = tested on: SK-MEL-2 melanoma
NCI-H460 lung = tested on: NCI-H460 lung
OVCAR-8 ovarian = tested on: OVCAR-8 ovarian
IGROV1 ovarian = tested on: IGROV1 ovarian
CCRF-CEM leukemia = tested on: CCRF-CEM leukemia
DU-145 prostate = tested on: DU-145 prostate
PC-3 prostate = tested on: PC-3 prostate

| SMILES | TGI (SW-620 colon) [µM] | TGI (MALME-3M melanoma) [µM] | TGI (UO-31 renal) [µM] | TGI (SK-MEL-2 melanoma) [µM] | TGI (NCI-H460 lung) [µM] | TGI (OVCAR-8 ovarian) [µM] | TGI (IGROV1 ovarian) [µM] | TGI (CCRF-CEM leukemia) [µM] | GI50 (SW-620 colon) [µM] | GI50 (DU-145 prostate) [µM] | TGI (DU-145 prostate) [µM] | GI50 (UO-31 renal) [µM] | GI50 (PC-3 prostate) [µM] | TGI (PC-3 prostate) [µM] | GI50 (SK-MEL-2 melanoma) [nM] | GI50 (CCRF-CEM leukemia) [µM] | GI50 (NCI-H460 lung) [µM] | GI50 (OVCAR-8 ovarian) [µM] | GI50 (IGROV1 ovarian) [µM] | GI50 (MALME-3M melanoma) [µM] |
| --- | --- | --- | --- | --- | --- | --- | --- | --- | --- | --- | --- | --- | --- | --- | --- | --- | --- | --- | --- | --- |
| N#CC(C(=O)/C(=N\Nc1nc(=S)[nH]n1N)C(C#N)c1ccc(Cl)cc1)c1ccc(Cl)cc1 (stereo not drawn) | > 100 | > 100 | > 100 | > 100 | > 100 | > 100 | > 100 |  |  |  |  |  |  |  |  |  |  |  |  |  |
| O=C(CO)CC(=O)C(=O)Nc1nc([N+](=O)[O-])cs1 | > 100 | > 100 | > 100 | > 100 | > 100 | > 100 | > 100 | > 100 |  |  |  |  |  |  |  |  |  |  |  |  |
| O=S(O)CCCCCSSCCCCSSCCCCCS(=O)O | > 100 | 86.6 | > 100 | > 100 | > 100 | > 100 | > 100 | > 100 |  |  |  |  |  |  |  |  |  |  |  |  |
| CCCCCCCCCCCCCCCCCC1=NCCN1CS(=O)(=O)O | 31.2 |  | 23 | 67.4 | 8.39 | 48.9 | 14.1 | > 100 | 7.19 | 5.19 | 17.2 | 6.28 | 11.4 | 26.1 | 27700 | 3.96 | 3.24 | 20.4 | 3.9 |  |
| NS(=O)(=O)c1cc2c(cc1Cl)NC(Cc1ccccc1)NS2(=O)=O (stereo not drawn) | > 100 | > 100 | > 100 | > 100 | > 100 | > 100 | > 100 |  |  |  | > 100 |  |  | > 100 |  |  |  |  |  |  |
| Cc1ccc(C2NC(=S)NC3=C2CCOc2c3ccc3ccccc23)cc1 (stereo not drawn) |  | 7.73 | > 100 | > 100 | > 100 | > 100 |  | > 100 |  |  |  | > 100 | 22.2 | > 100 | > 100000 | > 100 | 64.8 | > 100 |  | 2.98 |
| CCN(CC)c1cc(/C=C/c2ccc(OC)c(OC)c2)nc2cc(F)c(F)cc12 | > 100 |  | > 100 | 3.45 | > 100 | 80.8 | 12 | 11 | > 100 | 31.6 | > 100 | 38.7 | > 100 | > 100 | 1830 | 3.18 | 67.8 | 5.54 | 3.46 |  |
| CCOC(=O)N1CCc2cc(OC)c(OC)c3c2C1CC3=O (stereo not drawn) | > 100 | > 100 | > 100 | > 100 | > 100 | > 100 | > 100 | > 100 |  |  |  |  |  |  |  |  |  |  |  |  |
| CCOC(=O)C(=O)Nc1ccc(C)cc1C | > 100 | > 100 | > 100 | > 100 | > 100 | > 100 | > 100 | > 100 |  |  |  |  |  |  |  |  |  |  |  |  |
| COc1ccc(C2=NNC(=O)OC2c2ccccc2)cc1 (stereo not drawn) | > 100 | > 100 | > 100 | > 100 | > 100 | > 100 | > 100 | > 100 |  |  |  |  |  |  |  |  |  |  |  |  |
| Cn1c2c(c3ccccc31)C1CCCCC1C1C(=O)NC(=O)C21 (stereo not drawn) | > 100 | > 100 | > 100 |  | > 100 | > 100 | > 100 | > 100 |  |  |  |  |  |  |  |  |  |  |  |  |
| Cc1cc2c(=O)n(-c3ccc(F)cc3)c(C)nc2c(C(=O)O)c1C | > 100 | > 100 | > 100 | > 100 | > 100 | > 100 | > 100 | > 100 |  |  |  |  |  |  |  |  |  |  |  |  |
| COc1cc(/C=C/c2cc(/C=C/c3ccc(O)c(OC)c3)n(-c3c(C)cccc3C)c(=O)n2)ccc1O |  |  | 2.53 | 1.73 | 4.37 | 8.16 | 6.87 |  |  |  |  | 0.352 | 1.17 | 6.52 | 436 |  | 0.683 | 1.51 | 1.24 |  |
| O=C(CC1(O)C(=O)Nc2ccccc21)c1ccccc1Cl (stereo not drawn) | > 100 | > 100 | > 100 | > 100 | > 100 | > 100 | > 100 |  |  |  |  |  |  |  |  |  |  |  |  |  |
| Cc1ccc(NC(=O)c2cccc([N+](=O)[O-])c2O)c([N+](=O)[O-])c1 | 39.5 | 30.8 | 45.4 |  | 18.9 | 30.1 | 44.9 | > 100 |  |  |  |  |  |  |  |  |  |  |  |  |
| Cc1ccc(NC(=O)NC(=O)c2ccc([N+](=O)[O-])cc2[N+](=O)[O-])cc1Oc1ncc(Cl)cn1 | 12.6 | 22.3 | 17.3 |  | 14.8 | 6.7 | 29.7 | > 62.3 |  |  | > 100 |  |  | 12.2 |  |  |  |  |  |  |
| CC(C)c1ccccc1NC(=O)C(=O)Cc1nc2ccccc2s1 | > 100 | > 100 | > 100 | > 100 | > 100 | > 100 | > 100 | > 100 |  |  |  |  |  |  |  |  |  |  |  |  |
| COc1ccc(/C=C2\CCCCC2=O)cc1 | > 100 |  | > 100 |  | > 100 | > 100 | > 100 | > 100 |  |  |  |  |  |  |  |  |  |  |  |  |
| C[C@]12CCC[C@H](Cl)C1(O)C[C@H](C(=O)O)CC2 (stereo partly drawn) | > 100 | > 100 | > 100 | > 100 | > 100 | > 100 | > 100 | > 100 |  |  |  |  |  |  |  |  |  |  |  |  |
| CN1C2(c3ccccc3)c3c(-c4ccccc4)sc(-c4ccccc4)c3C1(c1ccccc1)C1C(=O)N(c3ccccc3)C(=O)C12 (stereo not drawn) | > 100 | > 100 | > 100 |  | > 100 | > 100 | > 100 | > 100 |  |  |  |  |  |  |  |  |  |  |  |  |
| COc1cc2c(cc1OC)-c1cc3cc(OC)c(OC)cc3n1CC2 | > 100 | 72.6 | > 100 | > 100 | > 100 | 73.1 | > 100 | > 100 |  |  |  |  |  |  |  |  |  |  |  |  |
| Cc1ccc(-c2nc(SCC(=O)O)n[nH]2)cc1 | > 100 | > 100 | > 100 | > 100 | > 100 | > 100 | > 100 | > 100 |  |  |  |  |  |  |  |  |  |  |  |  |
| CN(C)c1ccc(N=Cc2c([O-])ccc3ccccc23)cc1.[C-]#[O+].[C-]#[O+].[Ir] | 32.5 | 41.7 | 36.4 |  |  | > 100 | 65 | > 100 | 16.7 |  |  | 15.6 |  |  |  | 4.76 |  | 28.8 | 21.1 | 20.7 |
